Square brackets hold non-standard residues; d marks the D form. Peptide text beside a SMILES is read from it. dNva = CCC[C@@H](N)C(=O)O
What was measured:
[1] = system: mice; assay: hot plate test (central analgesia); assay type: in vivo; conditions: for central analgesic effect: mouse hot plate test, even at doses of 100 mg/kg
Text: (§1) The term "ED50" as shown in table 1 for the PBQ writhing assays is defined as the dose of drug which induces a 50% reduction in the number of writhes observed compared to the control. The term "ED50" used in the hot-plate assays is defined as the dose of drug required to increase the latency of response 2-fold compared to controls and was determind by parallel-line probit analysis.
(§2) PBQ (phenyl-ρ-benzoquinone) induced writhing in mice is an assessment of both central and peripheral analgesia. For experimental protocol see Sigmund et al., Proc. Soc. Exp. Biol. Med., 95, p. 729 (1957) which is incorporated herein by reference. Central analgesia was determined by the inhibition of a hot plate response in mice. For experimental protocol see G. Woolfe and A. Macdonald, J. Pharmacol. Exp. Ther., 80, p.300 (1944) which is incorporated herein by reference. Assays measuring opioid receptor binding affinities for µ and δ receptors as well as GPI and MVD assays were determined through experimental protocol set out in Schiller et al., Biophys. Res. Commun., 85, p.1322 (1975) incorporated herein by reference.
For this test, CD #1 male mice weighing between 20 and 25g were used. The mice were weighed, marked, and divided into groups of 10.
The mice were usually treated by subcutaneous injection of the compound (or the standard or the medium) in an injection volume equivalent to 0.1 ml/10g p.c. (10ml/kg). If an antagonist such as Nalaxone or N-methyl-Levallorphan was used, it was administered intra-peritoneally 20 minutes before the compound (or the standard, or the medium) was administered. The injection volume was also 0.1 ml/10g p.c. The dose of the antagonist was 10 mg/kg.
The mice were individually evaluated for reaction time on the hot plate. The temperature of the hot plate (Sorel, model DS37) was set at 55°C. […] The mice may be observed at different time intervals after administration of the compound (or medium, or standard). The time intervals may be 30, 60 or 120 minutes (or other).
For each time reading, the average reaction time of the control group was multiplied by 1.5. The reaction time of each treated mouse was compared to the "control average X 1.5.". […] The number of analgesic mice in a group determined the analgesic percentage of the compound for this reading.

[2] = system: mice; assay: lethality / safety after i.v. or s.c. administration; assay type: in vivo
Method: Therefore, the desired route of administration for these compounds is subcutaneous. Thus, the structural paradigm exemplified by BCH1774 can be modified while maintaining exclusion from the central nervous system even at doses as high as 100 mg kg^-1 s.c. and the deleterious i.v. toxicity can be minimized. Thus BCH2463 is not lethal to mice at doses at least as high as 20 mg kg^-1 (i.v.).

[3] = system: mice; assay: PBQ (phenylquinone) induced writhing assay; assay type: in vivo; set-up: ED50 value: unit not given beside the values; conditions: for ED50 value: as shown in Table 1, PBQ writhing, unit not given; for peripheral analgesia: statement in words, writhing compared with hot plate
Text: as §1, §2
The test was performed on CD #1 male mice weighing between 18 and 22g. The mice were weighed and marked. They were injected, by intra-peritoneal route, with 0.3ml/20g by weight with a solution of phenylquinone at 0.02%. The contortions which appeared during a 15 minute time period following the injection were counted. The phenylquinone was injected at time intervals of 5, 20 or 60 minutes after administration of the compound (or medium, or standard) by subcutaneous route. It was injected at time intervals of 60 minutes after the administration of the compound (or medium, or standard) by oral route;
The 0.02% phenylquinone^3 solution was prepared in the following fashion. 20mg of phenylquinone was dissolved in 5ml ethanol 90% (sigma, reagent, alcohol). The dissolved phenylquinone was slowly added to 95 ml of distilled water continuously shaken and preheated (not boiled). The phenylquinone solution was, at all times protected from light and a new solution was prepared every day for the test. It is recommended to wait 2 hours before using the phenylquinone solution. ** 2-phenyl-1,4-benzoquinone (Sigma)
The test may be carried out on 5 mice at the same time. Each group usually contained 10 mice. If an antagonist, such as naloxone, was used, it was administered 20 minutes before the compound (or the medium, or the standard) by intra-peritoneal route.

[4] = degradation on exposure to brush border kidney membranes; assay type: in vitro ADME; conditions: exposed to brushborder kidney membranes
Text: Many of the compounds listed in Table 1 show good µ-receptor binding but show weak analgesic effect in the mouse writhing assay. This anomaly may be due to rapid proteolysis, rapid clearence, or both. […] These three compounds are H-Tyr-D-Nva-Phe-Phe-NH2 (BCH2462), H-Tyr-D-Ser-Phe-Phe-NH2 (BCH2463), and H-Tyr-D-Arg-Phe-Phe-NH2 (BCH2687).
The effects of inhibition of proteolytic metabolism of BCH2463 by the inhibitor DL-Thiorphan has been studied and also the metabolic breakdown of BCH2463 mediated by brush border kidney membranes. The data obtained indicate that the kidney may be the principal site of clearance and metabolism for the compound BCH2463. From Figure 2, it appears that the endopeptidase enzyme EC24-11, which is inhibited by DL-thiorphan, is the preliminary mediator of BCH2463 proteolysis by brush border kidney extract.

Structure (SMILES)	central analgesic effect [1]	lethal effects upon mice ([2]; 1-5 mg kg^-1 i.v. bolus dose)	duration in vivo of analgesic effects ([3]; 20 mg/kg s.c. of BCH1774 compared with 30 mg/kg s.c. of BCH2463 (Figure 3))	ED50 value [3]	time within which rapidly degraded [4]	reaction time ([1]; Figs. 1C, 1D, dose not given)	peripheral analgesia [3]	reaction time ([1]; mice treated with 100 mg/kg (Fig 1B), control approximately 7 seconds)	lethal effects upon mice ([2]; doses up to 20 mg kg^-1 i.v.)	ED50 ([3]; mouse s.c., at 20 minutes post administration (Figure 2))
C[C@@H](NC(=O)[C@@H](N)Cc1ccc(O)cc1)C(=O)N[C@@H](Cc1ccccc1)C(=O)N[C@@H](Cc1ccccc1)C(N)=O [BCH1774, H-Tyr-D-Ala-Phe-Phe-NH2] (H-Y[dA]FF-NH2)	lack of analgesic effect	exhibited lethal effects	lasted longer than for BCH2463	1.4	15 to 30 min					
CCC[C@@H](NC(=O)[C@@H](N)Cc1ccc(O)cc1)C(=O)N[C@@H](Cc1ccccc1)C(=O)N[C@@H](Cc1ccccc1)C(N)=O [BCH2462, H-Tyr-D-Nva-Phe-Phe-NH2] (H-Y[dNva]FF-NH2)	No central analgesic effect was observed	exhibited lethal effects		2.7		approximately 8 seconds	exhibit peripheral analgesia			
NC(=O)[C@H](Cc1ccccc1)NC(=O)[C@H](Cc1ccccc1)NC(=O)[C@@H](CO)NC(=O)[C@@H](N)Cc1ccc(O)cc1 [BCH2463, H-Tyr-D-Ser-Phe-Phe-NH2] (H-Y[dS]FF-NH2)	No central analgesic effect was observed			0.5			exhibit peripheral analgesia	about 9 seconds	did not exhibit any lethal effects	0.5 mg/kg
N=C(N)NCCC[C@@H](NC(=O)[C@@H](N)Cc1ccc(O)cc1)C(=O)N[C@@H](Cc1ccccc1)C(=O)N[C@@H](Cc1ccccc1)C(N)=O [BCH2687, H-Tyr-D-Arg-Phe-Phe-NH2] (H-Y[dR]FF-NH2)	No central analgesic effect was observed			0.5		approximately 8 seconds	exhibit peripheral analgesia			
